Biological target: T1, human CYP2A6 enzyme (cytochrome P450 2A6) (Homo sapiens, UniProt P11509)
T1 construct: purchased Life Technologies PV6140; host or cells: insect cells (baculosomes)
T1 sequence (P11509 1-494): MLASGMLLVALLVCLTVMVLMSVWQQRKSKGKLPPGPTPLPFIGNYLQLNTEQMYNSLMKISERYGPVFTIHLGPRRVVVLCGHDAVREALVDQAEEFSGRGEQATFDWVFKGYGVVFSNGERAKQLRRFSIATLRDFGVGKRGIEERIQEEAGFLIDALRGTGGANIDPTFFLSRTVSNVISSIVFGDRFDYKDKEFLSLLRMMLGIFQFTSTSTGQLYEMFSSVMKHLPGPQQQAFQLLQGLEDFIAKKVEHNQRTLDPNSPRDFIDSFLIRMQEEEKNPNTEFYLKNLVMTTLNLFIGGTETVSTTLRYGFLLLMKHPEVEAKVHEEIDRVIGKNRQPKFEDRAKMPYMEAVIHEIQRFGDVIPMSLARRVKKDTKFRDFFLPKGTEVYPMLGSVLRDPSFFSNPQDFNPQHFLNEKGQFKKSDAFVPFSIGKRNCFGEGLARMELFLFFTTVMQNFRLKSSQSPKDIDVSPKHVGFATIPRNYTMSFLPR
Assay: P450 2A6 inhibition assay (Vivid CYP450 Screening Kit, baculosomes)
Type: biochemical
Settings: for IC50 of P450 2A6 inhibition (in words): dose-response curve; for IC50: microsomes from insect cells expressing human CYP2A6, 10 min pre-incubation, 2 h reaction at room temperature, highest concentration in dose-response curves 40 μM, triplicates; for P450 2A6 inhibition activity (in words): screening at 10 μM followed by dose-response curve
Method: Cytochrome P450 2A6 (Cyp2A6) activity was determined using the Vivid CYP450 Screening Kit (Life Technologies, catalog #PV6140) according to the manufacturer’s instructions. Briefly, a master pre-mix containing baculosomes and regeneration system was prepared using 0.5× Vivid reaction buffer II. The test compounds were dissolved in dimethyl sulfoxide (DMSO) at a concentration of 100 mM. From the stock solutions, each compound was serially diluted in 0.5× Vivid reaction buffer II to make working stocks of 100 μM, 50 μM, 25 μM and so on up to 10 dilutions. It is essential to dilute the DMSO at least 1000-fold when making the working dilutions to prevent its interference with the enzyme activity. An initial high-throughput screening was performed at 10 μM concentration for each compound. For the dose-response curve determination, in a 96-well plate, 40 μL of the diluted solutions of each test compound were added to each well, followed by 50 μl of the master pre-mix, before incubation for 10 min at room temperature. A 10× mixture of Vivid substrate (reconstituted with acetonitrile) and NADP^+ was then prepared. At the end of the incubation period, 10 μL of this solution was added to each well to start the reaction. After 2 hours of incubation in the dark at room temperature, the plate was read at 415 nm on a plate reader (Synergy H1, Biotek). For a positive inhibition control, tranylcypromine (Sigma-Aldrich, cat. #P8511) was used at a final concentration of 100 μM. For a negative (no inhibitor) control, a 1:1000 dilution of pure DMSO in 0.5× Vivid reaction buffer was used. Each concentration in the dose-response curve was set up in triplicates, and each data point was the average of triplicate wells. The % inhibition was calculated using the following equation. %Inhibition=(1−X−B/A−B)*100 where X is the fluorescence observed in presence of the test compound; A is the fluorescence observed in the absence of an inhibitor (no inhibitor control); and B is the fluorescence observed for the positive control. For graphing purposes, percent inhibition vs. anti-log[drug concentration] was plotted. A logistic sigmoidal model was used to fit the data and obtain IC50 values using Graphpad Prism software.
The syntheses of compounds 1 to 7 [Figure 1] were accomplished using the synthetic Schemes 1 and 2. […] Nicotine-mimicking compounds containing imidazole or methyl substituted imidazole side chains with varied sizes of 1–3 carbon alkyl spacers at position 3 of the pyridine ring were synthesized using Scheme 1 (compounds 1, 4 and 7). Based on our previous findings that acetylenic substituents can interact with the P450 active site amino acids and lead to mechanism-based inhibition, triple bond in the form of propargyl ether was incorporated in a second series of compounds at positions 2, 3 or 4 of the pyridine ring as an ether linkage (compounds 3, 6 and 2, respectively). Positions 2 and 4 were used to investigate whether substituted compounds at those positions would show a difference in their inhibition activities compared to the 3-position substituted compound. A longer spacer in between the propargyl ether and the 4-position of the pyridine ring was introduced to investigate whether a greater flexibility in the positioning of the key functional groups (pyridine ring and the alkyne moiety) in the binding site would be achieved. The Vivid CYP450 Screening Kit (Life Technologies, catalog #PV6140) was used for the P450 2A6 inhibition assays. An initial high-throughput screening was performed at a 10 μM concentration followed by a dose-response curve determination.
The inhibition studies on our compounds were performed using a Vivid CYP2A6 Kit (Life Technologies, catalog #PV6140). This kit uses microsomes from insect cells stably expressing human CYP2A6 enzyme. […]

Structure (SMILES) | IC50 of P450 2A6 inhibition (in words) | IC50 | P450 2A6 inhibition activity (in words)
Cc1nccn1CCCc1cccnc1 [Compound 1] | single digit micromolar | 9.03 µM | 
C#CCOc1ccncc1 [Compound 2, 4-(prop-2-yn-1-yloxy)pyridine] |  | > 40 µM | much lower inhibition
C#CCOc1ccccn1 [Compound 3, 2-(prop-2-yn-1-yloxy)pyridine] |  |  | did not inhibit
c1cncc(Cn2ccnc2)c1 [Compound 4, 3-((1H-imidazol-1-yl)methyl)pyridine] | single digit micromolar | 5.02 µM | 
C#CCOCCCc1ccncc1 [Compound 5, 4-(3-(prop-2-yn-1-yloxy)propyl)pyridine] |  | > 40 µM | moderate inhibition activity
C#CCOCc1cccnc1 [Compound 6, 3-((prop-2-yn-1-yloxy)methyl)pyridine] | single digit micromolar | 1 µM | 
Cc1nccn1Cc1cccnc1 [Compound 7, 3-[(2-methyl-1H-imidazol-1-yl)methyl] pyridine] |  | > 40 µM | moderate inhibition activity

Source: article PMC8555909, “Identification of CYP 2A6 inhibitors in an effort to mitigate the harmful effects of the phytochemical nicotine” (Journal of cancer metastasis and treatment, 2021)
